Source: US10468722B2, “Organic synthesis applications of non-aqueous fluoride salt solutions” (CALIFORNIA INSTITUTE OF TECHNOLOGY, priority 2015, dated 2019)

Tests used:
[1] = physchem; settings: for Solubility in fluorinated solvents (in words): 3-fluorobenzonitrile and BTFE, useful concentrations e.g. >0.05 M; for Solubility vs. TMAF: in 3-fluorobenzonitrile, relative to TMAF; for solubility: organic solvent or mixture
Experimental: NpMe3NF is determined to be soluble in a given solvent if the concentration of NpMe3NF dissolved within the solvent is greater than 0.05 M.

[2] = NpMe3NF stability in various solvents by 1H and 19F NMR; type: physicochemical
Experimental: NpMe3NF stability in various solvents is analyzed by ^1H and ^19F NMR measurements. Preliminary criteria used for a solvent being “chemically stable” to the F^− ion are observation of a clear, sharp peak in the ^19F spectrum, alongside a 1:1:1 triplet arising from the DF2^− formation from the deuterated acetonitrile solvent (CD3CN).

[3] = in 2,6-difluoropyridine (2,6-F2Py)
[4] = in 3-methoxypropionitrile (3-MeOPN)

**Q.** For CC(C)(C)C[N+](C)(C)CC(C)(C)C.[F-] [Np2Me2NF, bis(2,2-dimethylpropyl)dimethylammonium fluoride], which “Solubility in fluorinated solvents (in words)” value [1] is on record?
**A.** significantly higher solubility

**Q.** What about the “Solubility vs. TMAF” value [1] of the same compound?
**A.** >10x

**Q.** What about the solubility [1] of the same compound?
**A.** 340 mM

**Q.** With CC(C)(C)C[N+](C)(C)C.[F-] [NpMe3NF, (2,2-dimethylpropyl)trimethylammonium fluoride] as the compound, how does the “Solubility in fluorinated solvents (in words)” value [1] read?
**A.** significantly higher solubility

**Q.** And the “Approximate Solubility” value ([1]; in 1,3-Dimethyl-3,4,5,6-tetrahydro-2(1H)-pyrimidinone (DMPU))?
**A.** 110 mM

**Q.** And the “Approximate Solubility” value ([1]; in 2,2,2-trifluoroethyl trifluoroacetate (TFE-TFA))?
**A.** 950 mM

**Q.** And the “Approximate Solubility” value ([1]; in 2,3-difluorobenzonitrile (2,3-F2BN))?
**A.** 400 mM

**Q.** And the “Approximate Solubility” value [1, 3]?
**A.** 390 mM

**Q.** And the “Approximate Solubility” value ([1]; in 2-fluorobenzonitrile (2-FBN))?
**A.** 120 mM

**Q.** And the “Approximate Solubility” value ([1]; in 3-fluorobenzonitrile (3-FBN))?
**A.** 190 mM

**Q.** What about the “Solubility vs. TMAF” value [1] of the same compound?
**A.** >6x

**Q.** And the “Approximate Solubility” value [1, 4]?
**A.** 780 mM

**Q.** And the “Approximate Solubility” value ([1]; in (Dimethylamino)acetonitrile (DMAN))?
**A.** 140 mM

**Q.** And the “Approximate Solubility” value ([1]; in Fluoroethylene carbonate (FEC))?
**A.** 710 mM

**Q.** What about the “Approximate Solubility” value ([1]; in Tris(2,2,2-trifluoroethyl)phosphite (TTFP)) of the same compound?
**A.** 1050 mM

**Q.** And the “Approximate Solubility” value ([1]; in methoxyacetonitrile (MeOAN))?
**A.** 800 mM

**Q.** What about the “Approximate Solubility” value ([1]; in phenyl trifluoroacetate (PhTFA)) of the same compound?
**A.** 470 mM

**Q.** What about the “Approximate Solubility” value ([1]; in propionitrile (PN)) of the same compound?
**A.** 70 mM

**Q.** And the solubility [1]?
**A.** 190 mM

**Q.** What about the “Stability (1H and 19F NMR)” value [2, 3] of the same compound?
**A.** good stability

**Q.** What about the “Stability (1H and 19F NMR)” value [2, 4] of the same compound?
**A.** poor stability

**Q.** And the “Stability (1H and 19F NMR)” value ([2]; in BTFE)?
**A.** good stability

**Q.** And the “Stability (1H and 19F NMR)” value ([2]; in Bis(2,2,2-trifluoroethyl) carbonate (BTFEC))?
**A.** poor stability

**Q.** What about the “Stability (1H and 19F NMR)” value ([2]; in propionitrile (PN)) of the same compound?
**A.** good stability
